tested on: Drosophilae containing and expressing human Abeta42 gene; test: Pavlov's olfactory-related instantaneous memory test in Drosophila; assay type: in vivo; conditions: increasing dosage, compared with memantine hydrochloride; FIG. 3
Text: Drosophila has a classical learning and memory paradigm, known as Pavlov's olfactory-related instantaneous memory. During the training program, a group of about 100 drosophilae were exposed sequentially to two odors, i.e., 3-octanol and 4-methylcyclohexanol, each odor for 60 seconds, and to fresh air for 45 seconds therebetween. During exposure to the first odor, the drosophilae were electrocuted on their feet (1.5-second pulses at 3.5-second intervals, 60V), while no electrocution was exerted during exposure to the second odor. In order to detect “instantaneous memory” (also known as “learning”), drosophilae were transferred to the selection area in the T maze immediately after training and forced to choose between the two odors. The drosophilae in each T-maze arm were then captured, anesthetized, and counted. The behavior index was calculated from the distribution of drosophilae in the T maze. […] In each experiment, the age of the control group was matched with that of the experimental group.
Pharmacodynamic evaluation of the candidate compounds: Drosophilae containing and expressing human Abeta42 gene were selected as a diseased control, and drosophilae containing but not expressing human Abeta42 gene were selected as a healthy control. The day after emergence of the drosophilae, male drosophilae were selected and fed. […] The above memory test was performed on the drosophilae on the tenth day.

Row | SMILES | dose-effect relationship to improve memory of drosophilae with Alzheimer's disease
1 | O=C1C=C(OCc2ccccc2F)[C@H](Cc2ccccc2)N1 [Compound 51121] | eventually reaches or exceeds the level of the activity of the positive compound memantine hydrochloride
2 | O=C1C=C(OCc2cccs2)[C@H](Cc2ccccc2)N1 [Compound 51151] | eventually reaches or exceeds the level of the activity of the positive compound memantine hydrochloride
3 | O=C1C=C(OCc2cccc3ccccc23)[C@H](Cc2ccccc2)N1 [Compound 51311] | eventually reaches or exceeds the level of the activity of the positive compound memantine hydrochloride
4 | CC(=O)Oc1ccc(COC2=CC(=O)N[C@H]2Cc2ccccc2)cc1 [Compound 51351] | eventually reaches or exceeds the level of the activity of the positive compound memantine hydrochloride

From patent US11332440B2, “4-oxo-alkylated tetramic acid compound, and preparation method thereof” (priority 2017, dated 2022)
